The values that follow come from US8889902B2, “Acetylsalicylic acid salts” (priority 2009, dated 2014).

The subject of data set [1] is serum lipid levels (C, HDL, LDL, TG). The experiment in a line: Acute hyperlipidemia model (Triton WR1339). It counts as in vivo, Wistar rats. The settings on record: serum 24 h. How it is done: Male Wistar rats with body mass of 250-270 g were used. Animals were held in groups of 6-8 in climatized rooms at 22±1° C., relative humidity 60±5%, and 12/12-hour light/dark cycle with free access to water and feed. […] The solution of test substances or water was introduced to control and TR group animals p.o. one hour before and 20 hours after the introduction of TR as described below.
Blood for biochemical analysis was collected on the next day (24 hours after the injection of TR) by heart punction under ether narcosis. Serum was separated by centrifugation and analyzed for total cholesterol, HDL, LDL and TG levels by commercial kits.

Another data set deals with tail bleeding. The experiment in a line: Tail bleeding time during thrombosis experiment. It counts as in vivo, rats. The note with it: for Tail bleeding time, %: control = 100. How it is done:
Additionally during the thrombosis experiment rat tail bleeding time was measured. The tail was transected 5 mm from the tip with scalpel and the tail was immediately immersed into 37° C. warm isotonic saline until termination of bleeding was noted. Termination of bleeding was defined as the time of complete stop of bleeding with no recurrence of bleeding within the next 30 s.

A further data set relates to carrageneen paw oedema. The experiment in a line: Carrageneen oedema, preventive mode. The note with it: preventive 6 times, 4 h. In kind it is in vivo, rats. The procedure:
The […] oedema was investigated by established method ([…], Patol Fiziol Eksp Ter, 2002(2):24-7 (Rus) on 42 rats with body mass of 178-220 g: […] The prevention index was calculated as indicated in previous section.

Data set [2] has as its system response to thermal irritation (hot plate). The experiment in a line: Mouse hot plate test. In kind it is in vivo, mice.
In data set [3] the test system is hyperthermia induced by intramuscular injection of pyrogenal. The experiment in a line: Preventive antipyretic activity, pyrogenal hyperthermia. In kind it is in vivo, Wistar rats. The procedure: Experiments were conducted on 48 Wistar rats with body mass 165-182 g by intramuscular injection of pyrogenal (Gamalei State Research Institution, Moscow, Russia) in 100 μg dose (Shwarz G Y, Syubaev R D, Vedomosti NCEG lekarstvennyh sredstv MZ RF 2000; 1:44-50 (Rus). Test substances were given p.o. one hour before the pyrogenal injection. Rectal temperature was measured by electric thermometer TERMO before injection of pyrogenal (baseline) and for 3 hours after injection. The antipyretic activity was evaluated by the reduction of hyperthermic reaction 2 hours after injection of pyrogenal that correlated well with the published data (10) about the peak of reaction (Table 6). Ambient temperature was kept at 20-21° C.

For the next data set, the system named is CRP. The experiment in a line: CRP levels in blood, carrageneen inflammation model. In kind it is in vivo, rats. The note with it: for CRP: 5 h after carrageneen; for CRP increase %: carrageneen control = 100. How it is done:
To evaluate the intensity of the inflammation process the CRP levels were determined by standard method on analyzer ? INTEGRA 400+ ? at the end of experiment (5 hours after injection of carrageneen).

The subject of data set [4] is hyperthermia induced by intramuscular injection of pyrogenal. The experiment in a line: Antipyretic activity, pyrogenal hyperthermia (curative mode). In kind it is in vivo, rats. The procedure: The antipyretic effect of test substances in therapeutic (curative) mode was investigated on 48 rats with body mass 182-205 g, with hyperthermia induction by injecting pyrogenal in dose 100 μg (Shwarz G Y, Syubaev R D, Vedomosti NCEG lekarstvennyh sredstv MZ RF 2000; 1:44-50 (Rus). Test substances were given p.o. 2 hours after injection of pyrogenal immediately after the recording of elevated body temperature. Rectal temperature was measured by electric thermometer TERMO before the i.m. injection of pyrogenal (baseline temperature), at the peak of hyperthermia (pyrogenal control) and 30 min. after treatment with test substance, i.e., 2½ hours after the injection of pyrogenal. Ambient temperature in laboratory was kept at 20-22° C.

Data set [5] relates to FeCl3 induced carotid artery thrombosis. The experiment in a line: FeCl3 induced carotid artery thrombosis, time till occlusion. It counts as in vivo, Wistar rats. The note with it: for Time till occlusion, %: control = 100. An excerpt: We chose an experimental thrombosis model based on rat arterial thrombosis induced by FeCl3 (Kurz K et al, Thromb Res 1990, 60:269-280. Wang X, Xu L, Thromb Res 2005,115:95-100). Tissue damage initiated by iron-mediated chemical oxidation predisposes the injured area to platelet adherence and aggregation followed by coagulation activation and fibrin deposition. Male Wistar rats with mass 350-420 g were used in experiments. Animals were kept in groups of 7-8 in adequate cages in climatized room at 22±1° C., relative humidity 60±5% and 12/12-hour light/darkness cycle with free access to feed and water. All experiments were carried out in accordance with the European Community Council's Directive of 24 Nov. 1986 (86/609/EEC) relative to experimental animal care. All efforts were made to minimize animal suffering and to reduce the number of animals used. Rats were randomly divided into various experimental groups, each consisting of not less than seven animals. The vehicle or test compound MD (25 mg/kg), NA (25 mg/kg), MASA (10 mg/kg), ASA (5 mg/kg) and combination MD+NA (25+25 mg/kg), MASA+NA (10+25 mg/kg) and ASA+NA (5+25 mg/kg) was administered by oral route 2 h before the initiation of thrombosis. Parallel experiments were conducted to compare the effects of a single dose of test substance (given 2 h before the initiation of thrombosis) and repeated doses (once daily for 3 days). […] Rats were anaesthetized with pentobarbital sodium (50 mg/kg, i.p. and 10 mg/kg/h) and were placed on a heat controlled operating table throughout the experiment to maintain a body temperature of 37° C. One of the carotid arteries was exposed by cervical incision, separated from the adherent tissue, vagus nerve, and a flow probe (electromagnetic blood flow meter MFV 1200, Nicon Kohden, Japan) was placed on the exposed segment of common carotid artery to record the blood flow. After a stabilization period of 15 min, thrombosis was induced by topically applying (in contact with the adventitial surface of vessel) two pieces (2×1 mm) of Whatman filter paper, soaked in 15% solution of FeCl3. Thrombosis time of carotid artery was recorded as time taken for the complete cessation of the blood flow and has been reported as time till occlusion (TTO).

[6] abbreviates: 5 mg/kg/d p.o., repeated, 3 days.
Where [7] appears, read: 10 mg/kg/d p.o., repeated, 3 days.

Where “and” joins values, the source holds several entries; their conditions need not be identical. Identical values can stand only once. Marks after values point to notes of the source that are not given here.

In data set [1] (45 mg/kg p.o. 1 h before and 20 h after TR 250 mg/kg), `CC(=O)Oc1ccccc1C(=O)O` [ASA, acetylsalicylic acid] gave a C of 381.0 ± 30.3 mg/dL. In data set [1] (45 mg/kg p.o., TR 250 mg/kg), this compound returned an HDL of 62.8 ± 10.9 mg/dL, an LDL of 307.4 ± 37.8 mg/dL and a TG of 973 ± 82.7 mg/dL. In data set [1] (90 mg/kg p.o., TR 250 mg/kg), this compound displayed a C of 288.1 ± 23.5 mg/dL, an HDL of 60.0 ± 7.4 mg/dL, an LDL of 219.1 ± 23.9 mg/dL and a TG of 791 ± 73.9 mg/dL. For the same compound, in the data set on tail bleeding (5 mg/kg p.o., single dose), the Tail bleeding time is given as 13.8 ± 3.27 min and the “Tail bleeding time, %” value is listed as 155%. Besides, in the data set on tail bleeding (setting [6]), the Tail bleeding time was 17.8 ± 3.17^1 min and the “Tail bleeding time, %” value was found to be 207%. In the data set on carrageneen paw oedema (50 mg/kg p.o.), the “Reduction in % (oedema)” value stood at 70% and the “Volume of paw after injection of carrageneen” value is 1.55 ± 0.04 mL. For the same compound, in data set [2] (50 mg/kg p.o.), the “Latent period at 30 min after introduction of test substance” value was found to be 5.4 ± 0.46 s and the “Latent period at 60 min after introduction of test substance” value is 9.7 ± 1.05 s. Moreover, the “Rectal temperature 120 minutes after injection” value in data set [3] (50 mg/kg p.o. 1 h before pyrogenal) was 35.6 ± 0.19***^$ ° C. In the data set with CRP (100 mg/kg), this compound registered a CRP of 0.20 ± 0.018 mg/L and a CRP increase % of 50%. For the same compound, the “Rectal temperature at 30 minutes after treatment” value in data set [4] (50 mg/kg p.o. 2 h after pyrogenal) is on record as 36.51 ± 0.15*^$ ° C. Further, the Time till occlusion in data set [5] (5 mg/kg p.o., single dose 2 h before) is recorded as 35.2 ± 3.02^1 min. The “Time till occlusion, %” value in data set [5] (5 mg/kg p.o., single dose) was 144%. Further, in data set [5] (setting [6]), the Time till occlusion is 40.9 ± 3.25^1 min and the “Time till occlusion, %” value came to 162%.
Consider `CC(=O)Oc1ccccc1C(=O)[O-].C[N+](C)(C)NCCC(=O)O` [MASA, 3-(trimethylammonioamino)propanoate Acetylsalicylic Acid Addition Salt], for which the C in data set [1] (75 mg/kg p.o., TR 250 mg/kg) was 341.9 ± 16.3 mg/dL; in data set [1] (150 mg/kg p.o., TR 250 mg/kg), 249.6 ± 22.2**^$& mg/dl and 249.6 ± 22.2**^$ mg/dl and 249.6 ± 22.2**^& mg/dl; in data set [1] (300 mg/kg p.o., TR 250 mg/kg), 219.0 ± 16.7**^$#& mg/dl. The HDL in data set [1] (75 mg/kg p.o., TR 250 mg/kg) was determined as 68.1 ± 8.7 mg/dL; in data set [1] (150 mg/kg p.o., TR 250 mg/kg), 58.2 ± 8.1 mg/dL; in data set [1] (300 mg/kg p.o., TR 250 mg/kg) it was 56.3 ± 8.6 mg/dL. Also, the LDL in data set [1] (75 mg/kg p.o., TR 250 mg/kg) was 270.1 ± 12.8 mg/dL; in data set [1] (150 mg/kg p.o., TR 250 mg/kg), 182.4 ± 19.6**^$& mg/dl and 182.4 ± 19.6**^$ mg/dl and 182.4 ± 19.6**^& mg/dl; in data set [1] (300 mg/kg p.o., TR 250 mg/kg), 158.6 ± 19.4**^$#& mg/dl. Also, the TG is 861 ± 105.7 mg/dL in data set [1] (75 mg/kg p.o., TR 250 mg/kg); 668 ± 104.4**^$& mg/dl and 668 ± 70.9**^$ mg/dl and 668 ± 70.9**^& mg/dl in data set [1] (150 mg/kg p.o., TR 250 mg/kg); 548 ± 73.2***^&$# mg/dl in data set [1] (300 mg/kg p.o., TR 250 mg/kg). Further, the Tail bleeding time in the data set on tail bleeding (10 mg/kg p.o., single dose) stood at 12.1 ± 2.20 min; in the data set with tail bleeding (setting [7]), 13.1 ± 2.63 min. Also, the “Tail bleeding time, %” value with tail bleeding (10 mg/kg p.o., single dose) is on record as 136%; in the data set with tail bleeding (setting [7]) it was 152%. Also, the “Reduction in % (oedema)” value in the data set on carrageneen paw oedema (150 mg/kg p.o.) amounted to 94%; in the data set with carrageneen paw oedema (300 mg/kg p.o.), 86%. Also, the “Volume of paw after injection of carrageneen” value in the data set with carrageneen paw oedema (150 mg/kg p.o.) is on record as 1.40 ± 0.09**^$ ml; in the data set on carrageneen paw oedema (300 mg/kg p.o.) it was 1.41 ± 0.04**^$ ml. Further, the figures for the “Latent period at 30 min after introduction of test substance” value in data set [2] (75 mg/kg p.o.), in data set [2] (150 mg/kg p.o.) and in data set [2] (300 mg/kg p.o.) were 5.4 ± 0.38 s, 9.5 ± 0.53***^&&& s and 9.6 ± 1.12**^& s, respectively. Also, the “Latent period at 60 min after introduction of test substance” value was 4.6 ± 0.26 s in data set [2] (75 mg/kg p.o.), 7.1 ± 0.55 s in data set [2] (150 mg/kg p.o.) and 8.6 ± 0.60 s in data set [2] (300 mg/kg p.o.). Besides, the entries for the “Rectal temperature 120 minutes after injection” value in data set [3] (75 mg/kg p.o. 1 h before pyrogenal), in data set [3] (150 mg/kg p.o. 1 h before pyrogenal) and in data set [3] (300 mg/kg p.o. 1 h before pyrogenal) were 36.3 ± 0.20 °C, 36 ± 0.21 °C and 35.8 ± 0.16***^$ ° C, respectively. Moreover, the CRP with CRP (150 mg/kg) is 0.19 ± 0.009^#$ mg/l; in the data set on CRP (300 mg/kg), 0.21 ± 0.014 mg/L. In addition, the CRP increase % in the data set on CRP (150 mg/kg) stood at 33%; in the data set with CRP (300 mg/kg), 67%. The “Rectal temperature at 30 minutes after treatment” value in data set [4] (75 mg/kg p.o. 2 h after pyrogenal) is 36.90 ± 0.07 °C; in data set [4] (150 mg/kg p.o. 2 h after pyrogenal) it was 36.75 ± 0.09^#$ ° C; in data set [4] (300 mg/kg p.o. 2 h after pyrogenal), 36.40 ± 0.11*^$$% ° C. Moreover, the Time till occlusion in data set [5] (10 mg/kg p.o., single dose 2 h before) was 41.7 ± 3.95^2 min and 41.7 ± 3.95^2b min; in data set [5] (setting [7]) it was 48.4 ± 4.35^2 min. The “Time till occlusion, %” value in data set [5] (10 mg/kg p.o., single dose) was determined as 171%; in data set [5] (setting [7]), 191%.
Regarding `O=C(O)c1cccnc1` [NA, nicotinic acid], in data set [1] (50 mg/kg p.o., TR 250 mg/kg), the C came out at 327.5 ± 38.4 mg/dL, the HDL turned out to be 66.5 ± 14.6 mg/dL, the LDL came out at 246.3 ± 32.5 mg/dL and the TG was determined as 591 ± 43.3 mg/dL. Also, in the data set with tail bleeding (25 mg/kg p.o., single dose), the Tail bleeding time is recorded as 11.5 ± 1.39 min and the “Tail bleeding time, %” value came to 129%. For the same compound, the Time till occlusion in data set [5] (25 mg/kg p.o., single dose 2 h before) came to 30.3 ± 3.12 min. Moreover, in data set [5] (25 mg/kg p.o., single dose), the “Time till occlusion, %” value came to 124%.
